Target: T1, NAD-dependent protein deacetylase sirtuin-3, mitochondrial (Homo sapiens, UniProt Q9NTG7)
T1 sequence (Q9NTG7 whole entry): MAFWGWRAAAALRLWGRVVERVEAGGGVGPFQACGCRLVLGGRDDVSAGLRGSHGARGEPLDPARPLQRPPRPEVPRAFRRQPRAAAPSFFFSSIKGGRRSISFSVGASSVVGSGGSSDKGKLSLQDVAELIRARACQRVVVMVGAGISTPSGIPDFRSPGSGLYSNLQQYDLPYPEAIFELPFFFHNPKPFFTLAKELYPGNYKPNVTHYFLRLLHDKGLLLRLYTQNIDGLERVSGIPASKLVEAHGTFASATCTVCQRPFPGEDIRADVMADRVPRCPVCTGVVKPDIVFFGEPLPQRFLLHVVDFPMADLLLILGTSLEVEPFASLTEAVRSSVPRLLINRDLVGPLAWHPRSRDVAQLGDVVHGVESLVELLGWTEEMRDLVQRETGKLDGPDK
Experiment: Inhibition of human SIRT3 assessed as reduction in deacetylase activity using acetylated H3K9 as substrate preincubated for 15 mins followed by substrate addition and measured after 15 mins by UV-HPLC analysis

IC50: > 200 µM
SMILES: CCCCCCCCCCNC(=S)NCCCC[C@H](NC(=O)OCc1ccccc1)C(=O)Nc1ccccc1

Source: ChEMBL document CHEMBL4433206, “Novel Lysine-Based Thioureas as Mechanism-Based Inhibitors of Sirtuin 2 (SIRT2) with Anticancer Activity in a Colorectal Cancer Murine Model” (J Med Chem, 2019)
